According to EP1690525B1, “Gamma-polyglutamate hydrogels for use as super moisturizers in cosmetic and personal care products” (Tung Hai Biotechnology Corporation, priority 2005, dated 2006):

Tests used:
[1] = system: outside skin surface of the arm of a test panelist; experiment: Moisture retention of the skin after peeling off facial moisture mask (capacitance, Skin Analysis SHP88); format: in vivo, human; conditions: 5.0% in facial moisture mask; mask film peeled off after 15 minutes; 23°C, RH 65%
[2] = system: outside surface of the upper arm skin of a test panelist; experiment: Skin irritation patch test, Draize method; format: in vivo, human; conditions: 5.0% in facial moisture mask; patched 24 hours
Description: The small molecular weight γ-polyglutamate in […] with 200,000 to 400,000 daltons (designated as LM), high molecular weight γ-polyglutamate in Ca^++ form with 1.15x10^6 to 1.35x10^6 daltons (designated as HM), and γ-polyglutamate hydrogel (prepared from γ-polyglutamate in Na^+ form) with molecular weight from 15x10^6 to 100x10^6 or higher (cross-linked with gamma ray irradiation) were used as super moisturizers. The species and proportions of the ingredients contained in the exemplified facial moisture mask formulation are listed in Table 5. Table 5. Facial Moisture Mask Formulation
The moisture mask samples of 25 cm^2 were taken from experimental example 4 and patched evenly on the outside surface of the upper arm skin of a test panelist. A group of 10 panelists participated in this test. After 24 hours, then the mask samples were removed and the skin was observed carefully for any degree of irritation, and the results were recorded according to Draize method (see Appraisel of the Safety of Chemicals in Food, Drugs and Cosmetics. Pharmacolo. 93:377-392, 1948, Draize, F. et al.). Table 6. The film formation time, capacity increase ratio (%), the pH value of the skin, and the Draize score after applying facial moisture masks

[3] = system: Pig skin; experiment: Ex-vivo pig skin: Trans-Epidermal-Water-Loss (TEWL); parameters: unit not given here; conditions: 6.5% in skin moisture cream
[4] = system: Pig skin; experiment: Ex-vivo pig skin: skin moisture retention by corneometry; conditions: 6.5% in skin moisture cream, 23°C and RH 60%
Protocol: Table 9. Skin moisture cream formulation.
Pig skin was used for this experiment. The skin moisture was measured at 23 °C under an environment of relative humidity (RH) of 60% with a probe of corneometer HM99 of Courage^+Khazaka Electronic Gmbh, Germany.

[5] = system: tyrosinase; experiment: Inhibition of tyrosinase activity (absorbency at 475 nm); format: biochemical; conditions: 1.0% sample
Description: Although the formation of black pigment melanin on skin is complicated, it is generally realized that tyrosine is oxidized to DOPA (Dihydroxy Phenyalanine) by the catalysis of tyrosinase from melansome of melanocyte. The DOPA is further oxidized and finally converted into colored melanin-protein complex. The small molecular weight γ-polyglutamate in Na^+ form with 200,000 to 350,000 daltons (designated as LM) and high molecular weight γ-polyglutamate in Na^+ form with 1.15x10^6 to 1.35x10^6 daltons (designated as HM) were used in this experiment to determine the effectiveness in inhibiting the tyrosinase activity. • a. […] Sample of the reaction solution is then taken for measuring the absorbency at 475 nm, and recorded as At. • b. Determination of the blank absorbance of tyrosinase solutuion: • Replace 0.1 ml of buffer solution with tyrosinase solution, and repeat the same procedure in item (a), and record the absorbency at 475 nm as A1. • c. Replace 1 ml sample solution with buffer solution, and repeat the same procedure in item (a), and record the absorbance at 475 nm as Ab. • d. Determination of total blank absorbance of test solution: • Replace 1 ml sample solution with buffer solution, and 0.1 ml of tyrosinase solution with buffer solution, and repeat the procedure in item (a), and record the absorbency at 475 nm as Ao. • e. […]

[6] = system: outside skin surface of the panelist's arm; experiment: Skin moisturization by corneometer HM99 (ΔCU=CU2-CU1); format: in vivo, human; conditions: 2% in skin moisture cream
Protocol: Table 7: Skin moisture cream formulation. The cosmetic products from experimental example 6 were evaluated for the effectiveness of skin moisturization. A group of 5 test panelists participated in this experiment. The panelists were first put in a room with a temperature at 22 °C and relative humidity (RH) 60% for 15 minutes. A probe of the corneometer HM99 of Courage^+Khazaka Electronic Gmbh, Germany was used to measure the skin moisture of the outside skin surface of the panelist's arm to determine the base line as (CU1). A sample of 0.2g from the formulation of experimental example 6 was evenly spread over an area of 25 cm^2 of the skin surface for 2 minutes before the excess formulation sample was removed. After 2 hours the skin moisture was measured again and recorded as (CU2). Before the measurement the panelists were placed in a room with temperature at 22 °C and RH 60% for 15 minutes. The atteration of skin moisture is then calculated as ΔCU=CU2-CU1.

[7] = system: inside skin surface of a test panelist's arm; experiment: Water retention on skin after skin vital moisture cream (capacitance, Skin Analysis SHP88); format: in vivo, human; conditions: 5% in skin vital moisture cream, 22°C and RH 65%
Protocol: Table 2: Skin vital moisture cream formulation. […] A sample of 0.2g from each of the 5 products was evenly spread over an area of about 25 cm^2 on the inside skin surface of a test panelist's arm. A group of 10 panelists participated in this test. The water retention on the skin surface was measured at 23 °C under an environment of relative humidity of 60%, with a probe of Skin Analysis SHP88 made by Courage ^+Khazaka Electronic Gmbh, Germany. […] Table 3. The change of moisture retention over time after applying vital moisture creams, was expressed in terms of capacitance increase ratio, %, measured at 22°C and RH 65%.

SMILES: CC(O)CCO (stereo not drawn) [1,3-BG, 1,3-Butyl Glycol]
- Capacitance Increase Ratio, % [1]: 73.2%
- Draize Score [2]: 0

SMILES: OCC(O)CO [Glycerol]
- Trans-Epidermal-Water-Loss (TEWL) ([3]; Time 0 hour): 21.0.
- Trans-Epidermal-Water-Loss (TEWL) ([3]; Time 1 hour): 19.5
- Trans-Epidermal-Water-Loss (TEWL) ([3]; Time 2 hour): 19.0
- Trans-Epidermal-Water-Loss (TEWL) ([3]; Time 2 hour, listed as glycerol): 10.0
- Trans-Epidermal-Water-Loss (TEWL) ([3]; Time 4 hour): 17.5
- Trans-Epidermal-Water-Loss (TEWL) ([3]; Time -1 hour): 24.7
- Difference Corneometry, % ([4]; Time 0 hour): 48.. %
- Difference Corneometry, % ([4]; Time 1 hour): 32%
- Difference Corneometry, % ([4]; Time 2 hour): 20%
- Difference Corneometry, % ([4]; Time 4 hour): 17%
- Difference Corneometry, % ([4]; Time -1 hour): 100%

SMILES: O=c1cc(CO)occ1O [Kojic Acid]
- Inhibition of Tyrosinase Activity, % [5]: 100.0%

SMILES: C[N+](C)(C)CC(=O)O [Natural Betaine]
- Increase in Skin Moisture ΔCU ([6]; after 2 hours, 22 °C, RH 60%): 12.3
- Relative ΔCU % ([6]; relative to 5% Glycerol = 100): 164%

SMILES: CC(O)CO (stereo not drawn) [Propylene Glycol]
- Capacitance Increase Ratio, % ([7]; Time 0 min): 0%
- Capacitance Increase Ratio, % ([7]; Time 5 min): 105%
- Capacitance Increase Ratio, % ([7]; Time 10 min): 57%
- Capacitance Increase Ratio, % ([7]; Time 20 min): 51%
- Capacitance Increase Ratio, % ([7]; Time 40 min): 40%
- Capacitance Increase Ratio, % ([7]; Time 80 min): 38%
- Capacitance Increase Ratio, % ([7]; Time 120 min): 36%

SMILES: O=C1O[C@H]([C@@H](O)CO)C(O)=C1O [Vitamin C]
- Inhibition of Tyrosinase Activity, % [5]: 99.4%
